Measured values taken from patent publication US20190002436A1, “RESPIRATORY SYNCYTIAL VIRUS INHIBITORS” (MEDIVIR AB, priority 2015, published 2019).

What follows are compounds tested on RSV (Long) (assay: RSV cytopathic effect (CPE)-based viral replication assay). Details: HEp-2 cells infected with RSV Long at MOI 0.015; 3 days at 37° C.; cell viability by CellTiter-Glo luminescence; read-out: EC50 (nm).
Format: cell-based, respiratory syncytial virus (RSV)
Description: Example A: RSV Cytopathic Effect
Compounds of the invention are initially tested in a cytopathic effect (CPE)-based viral replication assay using immortalized cells and a laboratory strain of RSV (Long). This assay evaluates the ability of a compound to inhibit viral replication.
Assay plates are prepared by seeding 2,500 HEp-2 cells (ATCC) per well of a 384-well black clear-bottom plate (Greiner Bio-One) in 20 μL of assay media (defined as DMEM supplemented with 2% heat-inactivated fetal bovine serum and 1% Penicillin/Streptomycin). Assay plates are incubated overnight at 37° C. in an incubator containing 5% CO2. The following day, a 10-point serial dilution of test compound is prepared in DMSO. Compounds are subsequently diluted with assay media and 20 μL of diluted compound (containing 1.5% DMSO) is transferred to an assay plate for evaluation of antiviral activity.
For the CPE assay, cells are infected at a Multiplicity of Infection (MOI) of 0.015 using 20 μL of RSV Long (ATCC) diluted in assay media. The DMSO concentration is constant throughout the assay plate, including the negative and positive controls. The assay plate is incubated for 3 days at 37° C. in an incubator containing 5% CO2. Cell viability is evaluated with the addition of 10 μL of CellTiter-Glo (ProMega). Luminescence is measured using an EnVision plate reader (Perkin Elmer). EC50 values are calculated using the raw data from the CPE assays.
`O=C1N(Cc2ncc3ccccc3c2-c2ccc(F)nc2)c2ccccc2C12CC(NCCF)C2` (single isomer, unassigned) [Example 87-1, 3-((2-fluoroethyl)amino)-1′-((4-(6-fluoropyridin-3-yl)isoquinolin-3-yl)methyl)spiro[cyclobutane-1,3′-indolin]-2′-one] showed an EC50 of 21 nM.

Same assay, conditions: human respiratory syncytial virus, HEp-2, 72 h, HEp-2 cells infected with RSV Long at MOI 0.015; 3 days at 37° C.; cell viability by CellTiter-Glo luminescence; read-out: EC50 (nm)
`CS(=O)(=O)Nc1ccc(-c2c(CN3C(=O)C4(CN(C(=O)C5(N)CC5)C4)c4ccccc43)ncc3ccccc23)cc1` [Example 114c, N-(4-(3-((1-(1-aminocyclopropanecarbonyl)-2′-oxospiro[azetidine-3,3′-indolin]-1′-yl)methyl)isoquinolin-4-yl)phenyl)methanesulfonamide] showed an EC50 of 5.5 nM. Compound `Cc1noc(C)c1-c1c(CN2C(=O)C3(CCN(C(=O)C4(N)CC4)CC3)c3ccncc32)ncc2ccccc12` [Example 130c, 1-(1-Aminocyclopropanecarbonyl)-1′-((4-(3,5-dimethylisoxazol-4-yl)isoquinolin-3-yl)methyl)spiro[piperidine-4,3′-pyrrolo[2,3-c]pyridin]-2′(1′H)-one] has an EC50 of 1000 nM. Work on `CS(=O)(=O)N1CCC2(CC1)C(=O)N(Cc1ncc3cc(F)ccc3c1-c1cncs1)c1cnccc12` [Example 2010] yielded an EC50 of 1.5 nM. In the case of `CS(=O)(=O)N1CC2(C1)C(=O)N(Cc1ncc3ccccc3c1-c1ccc(F)nc1)c1ccccc12` [Example 78], the EC50 is reported as 0.9 nM. Work on `CS(=O)(=O)N1CCC2(CC1)C(=O)N(Cc1ncc3cc(F)ccc3c1-c1cccnc1)c1cnccc12` [Example 2034] yielded an EC50 of 2.6 nM. `COC(=O)N1CC2(C1)C(=O)N(Cc1ncc3ccccc3c1-c1ccc(S(N)(=O)=O)cc1)c1ccccc12` [Example 99, Methyl 2′-oxo-1′-((4-(4-sulfamoylphenyl)isoquinolin-3-yl)methyl)spiro[azetidine-3,3′-indoline]-1-carboxylate] was tested, and the EC50 was 0.75 nM. `N#Cc1ccc(-c2c(CN3C(=O)C4(CCN(C(=O)C(F)(F)F)CC4)c4ccncc43)ncc3ccccc23)cn1` [Example 66-2, 5-(3-((2′-Oxo-1-(2,2,2-trifluoroacetyl)spiro[piperidine-4,3′-pyrrolo[2,3-c]pyridin]-1′(2′H)-yl)methyl)isoquinolin-4-yl)picolinonitrile] showed an EC50 of 6 nM. Compound `CS(=O)(=O)Nc1ccc(-c2c(CN3C(=O)C4(CN(C(N)=O)C4)c4ccccc43)ncc3ccccc23)cc1` [Example 117, 1′-((4-(4-(methylsulfonamido)phenyl)isoquinolin-3-yl)methyl)-2′-oxospiro[azetidine-3,3′-indoline]-1-carboxamide] has an EC50 of 0.75 nM. For `CS(=O)(=O)N1CCC2(CC1)C(=O)N(Cc1ncc3cc(Cl)ccc3c1-c1cccnc1)c1cnccc12` [Example 160c, 1′-((7-chloro-4-(pyridin-3-yl)isoquinolin-3-yl)methyl)-1-(methylsulfonyl)spiro[piperidine-4,3′-pyrrolo[2,3-c]pyridin]-2′(1′H)-one], the EC50 was 1.3 nM. `O=c1n(Cc2ncc3cccc(F)c3c2CCCCO)c2cnccc2n1C1CC1` [Example 31, 1-Cyclopropyl-3-((5-fluoro-4-(4-hydroxybutyl)isoquinolin-3-yl)methyl)-1H-imidazo[4,5-c]pyridin-2(3H)-one] gave an EC50 of 140 nM. `CC1(OC(=O)N2CC3(C2)C(=O)N(Cc2ncc4ccccc4c2-c2ccc(C#N)nc2)c2ccccc23)CC1` [Example 91b, 1-Methylcyclopropyl 1′-((4-(6-cyanopyridin-3-yl)isoquinolin-3-yl)methyl)-2′-oxospiro[azetidine-3,3′-indoline]-1-carboxylate] showed an EC50 of 0.4 nM. Compound `O=c1n(Cc2ncc3c(F)cccc3c2CCCCO)c2cnccc2n1C1CC1` [Example 29, 1-Cyclopropyl-3-((8-fluoro-4-(4-hydroxybutyl)isoquinolin-3-yl)methyl)-1H-imidazo[4,5-c]pyridin-2(3H)-one] has an EC50 of 160 nM. Compound `CS(=O)(=O)N1CCC2(CC1)C(=O)N(Cc1ncc3ccccc3c1-c1ccc(C#N)nc1)c1cnccc12` [Example 66-1, 5-(3-((1-(Methylsulfonyl)-2′-oxospiro[piperidine-4,3′-pyrrolo[2,3-c]pyridin]-1′(2′H)-yl)methyl)isoquinolin-4-yl)picolinonitrile] has an EC50 of 2.6 nM. Compound `O=c1n(Cc2ncc3ccccc3c2CCCCO)c2cnccc2n1C1CN(S(=O)(=O)C2CC2)C1` [Example 34, 1-(1-(cyclopropylsulfonyl)azetidin-3-yl)-3-((4-(4-hydroxybutyl)isoquinolin-3-yl)methyl)-1H-imidazo[4,5-c]pyridin-2(3H)-one] has an EC50 of 33 nM. In the case of `NC1(C(=O)N2CCC3(CC2)C(=O)N(Cc2ncc4ccccc4c2-c2ccc(S(N)(=O)=O)cc2)c2cnccc23)CC1` [Example 2015], the EC50 is reported as 3.9 nM. `O=C(OC1CC1)N1CCC(n2c(=O)n(Cc3ncc4ccccc4c3CCCCO)c3cnccc32)CC1` [Example 35, cyclopropyl 4-(3-((4-(4-hydroxybutyl)isoquinolin-3-yl)methyl)-2-oxo-2,3-dihydro-1H-imidazo[4,5-c]pyridin-1-yl)piperidine-1-carboxylate] was tested, and the EC50 was 2.4 nM. `COC(=O)N1CC2(C1)C(=O)N(Cc1ncc3ccccc3c1-c1ccc(F)nc1)c1ccccc12` [Example 73] was tested, and the EC50 was 1.6 nM. Compound `O=C(N1CCOCC1)N1CC2(C1)C(=O)N(Cc1ncc3ccccc3c1-c1cccnc1)c1ccccc12` [Example 148b, 1-(morpholine-4-carbonyl)-1′-((4-(pyridin-3-yl)isoquinolin-3-yl)methyl)spiro[azetidine-3,3′-indolin]-2′-one] has an EC50 of 7.2 nM. `NCc1ccc2c(CCCCO)c(Cn3c(=O)n(C4CC4)c4ccncc43)ncc2c1` [Example 26, 3-((7-(Aminomethyl)-4-(4-hydroxybutyl)isoquinolin-3-yl)methyl)-1-cyclopropyl-1H-imidazo[4,5-c]pyridin-2(3H)-one] was tested, and the EC50 was 5.9 nM. `CNC1(C(=O)N2CCC3(CC2)C(=O)N(Cc2ncc4ccccc4c2-c2ccc(C(=O)N(C)C)nc2)c2cnccc23)CC1` [Example 122, N,N-dimethyl-5-(3-((1-(1-(methylamino)cyclopropanecarbonyl)-2′-oxospiro[piperidine-4,3′-pyrrolo[2,3-c]pyridin]-1′(2′H)-yl)methyl)isoquinolin-4-yl)picolinamide] gave an EC50 of 8.5 nM. With `CC(C)(O)C(=O)N1CC2(C1)C(=O)N(Cc1ncc3ccccc3c1-c1cccnc1)c1ccccc12` [Example 118, 1-(2-hydroxy-2-methylpropanoyl)-1′-((4-(pyridin-3-yl)isoquinolin-3-yl)methyl)spiro[azetidine-3,3′-indolin]-2′-one] the EC50 was 3.8 nM. With `COC(=O)N1CCC(n2c(=O)n(Cc3ncc4ccccc4c3CCCCO)c3cncc(Cl)c32)CC1` [Example 15, Methyl 4-(7-chloro-3-((4-(4-hydroxybutyl)isoquinolin-3-yl)methyl)-2-oxo-2,3-dihydro-1H-imidazo[4,5-c]pyridin-1-yl)piperidine-1-carboxylate] the EC50 was 2.2 nM. For `O=C(C1CCNCC1)N1CC2(C1)C(=O)N(Cc1ncc3ccccc3c1-c1cccnc1)c1ccccc12` [Example 149b, 1-(Piperidine-4-carbonyl)-1′-((4-(pyridin-3-yl)isoquinolin-3-yl)methyl)spiro[azetidine-3,3′-indolin]-2′-one], the EC50 was 6 nM. Compound `CS(=O)(=O)N1CCC2(CC1)C(=O)N(Cc1ncc3ccccc3c1-c1ccncc1)c1cnccc12` [Example 2014] has an EC50 of 2.6 nM.

Same assay, conditions: human respiratory syncytial virus, HEp-2, 72 h, read-out: EC50 (nm)
Compound `CC(=O)N1CC2(C1)C(=O)N(Cc1ncc3ccccc3c1-c1cccnc1)c1ccccc12` [Example 153, 1-acetyl-1′-((4-(pyridin-3-yl)isoquinolin-3-yl)methyl)spiro[azetidine-3,3′-indolin]-2′-one] has an EC50 of 5.5 nM.
